Experiments:
B16 mouse melanoma cells = experiment: MTT / CV cell viability test; type: cell-based; conditions: 24 h
Description: (§1) Rat glioma cell line C6 was a kind gift from Dr. Pedro Tranque (Universidad de Castilla-La Mancha, Albacete, Spain), murine melanoma B16 cell line was a kind gift from Dr. Sinisa Radulovic (Institute for Oncology and Radiology of Serbia, Belgrade, Serbia) while mouse fibrosarcoma L929 was obtained from the European Collection of Animal Cell Cultures (Salisbury, UK). Cells were grown in HEPES-buffered RPM, 1640 medium supplemented with 5% FCS, 2 mM glutamine, 0.01% sodium pyruvate, 5×10^−5 M 2-mercaptoethanol and antibiotics (culture medium) at 37° C. in a humidified atmosphere with 5% CO2. After conventional trypsinization the cells were seeded at a concentration of 10^4 cells/well in a 96-well plate, of 2×10^5 cells/well in a 6-well plate or at 3×10^4 cells/well in a 4-well chamber slide, cultivated overnight, and then exposed to the test compound.
(§2) The cells were seeded in flat-bottom 96-well plates (10^4 cells/well) in a final volume of 200 μl of culture medium, incubated overnight, then treated with different concentrations of the test compound. After 24 h incubation, cell viability was assessed using 3-4,5-dimethylthiazol-2-yl)-2,5-diphenyltetrazolium bromide (MTT) test, based on the mitochondrial-dependent reduction of MTT to formazan, or by crystal violet (CV) staining of adherent cells, as previously described (Mijatovic et al CMLS 2004). The results are presented as % of control values obtained in untreated cultures. The rate of cell proliferation was also determined using flow cytometric analysis of cells labeled with CFSE (Kang 2005). The cells were detached, added with 1.5 μM CFSE and allowed to stand for 15 min at 37° C., then washed twice and seeded in 6-well plates at 2×10^5. The cells were treated with the compound for 24 and 48 h, trypsinized and washed twice. Finally, the cells were resuspended in PBS and analyzed by flow cytometry. Green fluorescence emission from cells illuminated with excitation light of 488 nm was measured with a FACS Calibur (BD, Heidelberg, Germany) and analyzed using the CellQuest software.

C6 rat astrocytoma cells = experiment: MTT / CV cell viability test; type: cell-based; conditions: 24 h
Description: as §1, §2

[1] = system: L929 mouse fibrosarcoma cells; experiment: MTT / CV cell viability test; type: cell-based; conditions: 24 h
Description: as §1, §2

B16 cells = experiment: LDH release assay (cell death); type: cell-based, mouse; conditions: B16, dose-dependent (24 h) and time-dependent (25 μg/ml), significant after 18 h
Description: As a marker of necrotic cell death, the release of intracellular enzyme LDH, which mediates the conversion 2,4-dinitrophenylhydrazine into visible hydrazone precipitate in the presence of pyruvate, was measured. […] The percentage of dead cells was determined using the following formula: [(E−C)/(T−C)]×100, wherein E is the experimental absorbance of treated cultures measured at 492 nm, C is the absorbance of supernatants of control untreated cells, and T is the absorbance corresponding to the maximal (100%) LDH release of Triton-lysed cells. Cell cycle analysis and apoptosis detection were carried out exactly as described in the literature (Mijatovic CMLS 2005). Acidic vesicular organelles, which characterise autophagy, are stained by vital dye acridin orange. The intensity of red fluorescence is proportional to the acidity and volume of the organelles, while the cytoplasm and nucleolus emits bright green and dim red (Kanzawa 2004). For the detection of autophagy the cells were cultivated in 6-well plates as previously described, detached and stained with 1 μg/ml acridin orange for 15 min at RT. At the end of the incubation period the cells were washed and finally resuspended in PBS. Green (510-530 nm) and red (>650 nm) fluorescence emission from 10^4 cells illuminated with blue (488 nm) excitation light was measured with a FACS Calibur and analyzed using CellQuest software.

C6 cells = experiment: Autophagy detection by acridin orange staining (flow cytometry); type: cell-based, rat; conditions: C6, 25 μg/ml, 24 h
Description: As a marker of necrotic cell death, the release of intracellular enzyme LDH, which mediates the conversion 2,4-dinitrophenylhydrazine into visible hydrazone precipitate in the presence of pyruvate, was measured. The cells were seeded in flat-bottom 96-well plates as indicated above and the assay was performed after 24 h incubation, as previously described (Decker et al). The percentage of dead cells was determined using the following formula: [(E−C)/(T−C)]×100, wherein E is the experimental absorbance of treated cultures measured at 492 nm, C is the absorbance of supernatants of control untreated cells, and T is the absorbance corresponding to the maximal (100%) LDH release of Triton-lysed cells. Cell cycle analysis and apoptosis detection were carried out exactly as described in the literature (Mijatovic CMLS 2005). Acidic vesicular organelles, which characterise autophagy, are stained by vital dye acridin orange. The intensity of red fluorescence is proportional to the acidity and volume of the organelles, while the cytoplasm and nucleolus emits bright green and dim red (Kanzawa 2004). […] Green (510-530 nm) and red (>650 nm) fluorescence emission from 10^4 cells illuminated with blue (488 nm) excitation light was measured with a FACS Calibur and analyzed using CellQuest software.

N#Cc1c(COC(=O)CC2CC(c3ccccc3)=NO2)no[n+]1[O-] (racemic) [GIT27-NO, (S,R)-3-phenyl-4,5 dihydro-5-isoxazole acetic acid-nitric oxide]
viability (MTT) of GIT27-NO treated cells in the presence of autophagic inhibitors (B16 mouse melanoma cells; B16, GIT27-NO 25 μg/ml, 3-MA 1 mg/ml or Baf 0.5 μM): recovered | survival (MTT) of GIT27-NO treated cells with specific MAP kinase inhibitors (B16 mouse melanoma cells; B16, GIT27-NO 25 μg/ml, JNK inhibitor SP600125 0.75 μM): significantly improved the survival | viability (MTT) of GIT27-NO treated cells with ROS scavenger NAC (B16 mouse melanoma cells; B16, GIT27-NO 25 μg/ml, NAC 2.5 μM): restored the viability | viability (MTT) of GIT27-NO treated cells with PTK inhibitor tyrphostin (B16 mouse melanoma cells; B16, GIT27-NO 25 μg/ml, tyrphostin 5 μM): almost completely restored the viability | cell viability (MTT, mitochondrial respiration) (B16 mouse melanoma cells; B16 cells, different concentrations, cell number also reduced by CV): dose-dependent reduction of mitochondrial respiration | viability (MTT) of GIT27-NO treated cells in the presence of autophagic inhibitors (C6 rat astrocytoma cells; C6, GIT27-NO 25 μg/ml, 3-MA 1 mg/ml or Baf 0.5 μM): recovered | survival (MTT) of GIT27-NO treated cells with specific MAP kinase inhibitors (C6 rat astrocytoma cells; C6, GIT27-NO 25 μg/ml, ERK inhibitor PD98059 50 μM, JNK inhibitor SP600125 0.75 μM): significantly improved the survival | viability (MTT) of GIT27-NO treated cells with ROS scavenger NAC (C6 rat astrocytoma cells; C6, GIT27-NO 25 μg/ml, NAC 2.5 μM): restored the viability | viability (MTT) of GIT27-NO treated cells with PTK inhibitor tyrphostin (C6 rat astrocytoma cells; C6, GIT27-NO 25 μg/ml, tyrphostin 5 μM): almost completely restored the viability | viability (MTT) of GIT27-NO treated cells in parallel with NO-scavenger hemoglobin (C6 rat astrocytoma cells; C6, hemoglobin 12.5 μM, GIT27-NO 25 mg/ml (as printed in b12)): almost completely restored | cell viability (MTT, mitochondrial respiration) (C6 rat astrocytoma cells; C6 cells, different concentrations, cell number also reduced by CV): dose-dependent reduction of mitochondrial respiration | survival (MTT) of GIT27-NO treated cells with specific MAP kinase inhibitors ([1]; L929, GIT27-NO 25 μg/ml, ERK inhibitor PD98059 50 μM, p38 inhibitor SB202190 20 μM): significantly improved the survival | viability (MTT) of GIT27-NO treated cells with ROS scavenger NAC ([1]; L929, GIT27-NO 25 μg/ml, NAC 2.5 μM): restored the viability | viability (MTT) of GIT27-NO treated cells with PTK inhibitor tyrphostin ([1]; L929, GIT27-NO 25 μg/ml, tyrphostin 5 μM): almost completely restored the viability | cell viability (MTT, mitochondrial respiration) ([1]; L929 cells, different concentrations, cell number also reduced by CV): dose-dependent reduction of mitochondrial respiration | LDH release (B16 cells): induced LDH release | acidic autophagic vesicles (red fluorescence of acridin orange) (C6 cells): significantly increased the intensity of bright red fluorescence
